Measured values from PubChem BioAssay AID179 (DTP/NCI, 2004).
Calls of active or inactive are those of the source.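 How the source made its calls: active means compounds giving half or more protection of infected cells from virus-caused growth loss, again on retest; inactive means the rest.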 Where a SMILES comes first, the peptide text is derived from it.

Test system: CEM cells HIV-1 protection, formazan growth assay
Assay: NCI AIDS Antiviral Assay
Details: for IC50: measured here: growth of uninfected CEM cells
In short: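 Protection of CEM cells against HIV-1 was scored from cell growth (soluble formazan) across five concentrations, with parallel uninfected cells. Lack of protection may reflect toxicity.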

SMILES	EC50 [µM]	IC50 [µM]	outcome
COc1ccc(OC)c(/C=C(\C#N)c2ccc([N+](=O)[O-])cc2)c1	> 200	> 200	
COc1cc(/C=N/N=C(\N)NO)cc(OC)c1OC	> 200	105	
CC[C@@]12CCC(=O)N3CCC4(C(=C(C(=O)OC)C1)Nc1ccccc14)[C@H]32 (stereo not given in full)	> 269	15.5	
CC(=O)NC(CC(C)C)C(=O)NC(CC(=O)O)C(=O)NC(CCCCN)C(=O)NC(C)C(=O)NC(CO)C(=O)NC(Cc1ccc(O)cc1)C(=O)NC(CO)C(=O)NC(C(=O)NC(CC(N)=O)C(=O)NC(Cc1cnc[nH]1)C(=O)NC(CC(C)C)C(N)=O)C(C)O (stereo not given) (Ac-LDKASYSTNHL-NH2; configuration not given here)	> 47.9	> 47.9	
O=c1cc(N2CCN(c3cc(=O)n4ccccc4n3)CC2)oc2ccccc12	> 200	> 200	
CC1(C)COC(C2Cc3ccccc3C(O)(c3ccccc3)C2)=N1 (stereo not given)	> 200	> 200	
CCOC(=O)/C(ON)=C(/CC/C(C(=O)OC)=C(\ON)C(=O)OCC)C(=O)OC	155	617	
c1cncc(C2c3[nH]c4ccccc4c3CCN2CCCN2CCCCC2)c1 (stereo not given)	> 3.89	> 3.89	
CN(C)CCSc1nccc(-c2cc3ccccc3s2)n1	> 417	11.5	
O=S(=O)(N/N=C1\CC2CCC1C2)c1ccccc1 (stereo not given)	> 200	> 200	
CCCCCCCCCCCCC(CCCCCCCCCCCC)OP(=O)(O)O			inactive
O=C1NCC2(CCN(CC3COc4ccccc4O3)CC2)N1c1ccccc1 (stereo not given)	> 200	> 200	
CC(C)C(C=O)C(O)(C(F)(F)F)C(F)(F)F (stereo not given)	> 200	> 200	
CC(=O)Nc1ccccc1-c1ccccc1NC(C)=O			inactive
CCC(C)(C)OC(=O)CC[C@@H](C)[C@H]1CC[C@H]2[C@@H]3CCC4CC(O)CC[C@]4(C)[C@H]3CC[C@]12C (stereo not given in full)	> 200	27.5	
COc1cccc(N2C(=O)C3c4[nH]c5ccc(C)cc5c4C4CCC(C(C)(C)C)CC4C3C2=O)c1 (stereo not given)	> 200	9.55	
Cc1ccc2oc(-c3nnc(N)s3)cc(=O)c2c1	> 28.2	> 28.2	
N#Cc1sc2nc(/C=C3/C=CC=CC3=O)c(O)n2c1N	> 200	93.3	

SMILES	EC50 [µM]	IC50 [µM]	outcome
CC(C)(C)OC(=O)N1C(=O)C2CCCC21 (stereo not given)	> 200	> 200	
c1ccc2sc(N3CCCCC3)nc2c1	> 200	81.3	
Cn1c(=O)cc(C=Nc2ccc(-c3ccccc3)cc2)c2ccccc21	> 100	2	
OCC(O)C(O)C(O)C1SC(c2ccccc2)=NN1c1ccccc1 (stereo not given)			inactive
CC(CCC(=O)O)[C@H]1CCC2[C@@H]3CC(O)[C@@H]4CC(O)CC[C@]4(C)C3CC[C@@]21C (stereo not given in full)	> 200	72.4	
CNC(=O)CCNC(=O)CCC(=O)N(C)C	> 200	> 200	
CN(C)C(=NC#N)N(Cc1ccccc1)Cc1ccccc1	> 200	112	
O=c1oc2nc3ccc(Cl)cc3c(=O)n2c2ccc(Cl)cc12	> 200	> 200	
O=C(O)CSc1nnc(COc2ccccc2)n1-c1ccccc1	> 741	407	
COc1ccc(C23CCC(=O)N2CCS3)cc1 (stereo not given)			inactive
CCCCC1N=CNc2c1ccc1c2[nH]c2ccccc21 (stereo not given)	> 25.7	6.17	
C[n+]1c2ccccc2c(CNC(CCC(N)=O)C(=O)O)c2ccccc21 (stereo not given)			inactive
CN(Cc1cnc2nc(N)nc(N)c2n1)c1ccc(C(=O)NC(CCC(=O)NCC(P(=O)(O)O)P(=O)(O)O)C(=O)O)cc1 (stereo not given)	> 200	1.23	
c1cnc2c(c1)-n1cccc1C1(CCCCC1)NN2	> 200	> 200	
CC(=O)O[C@]12CCCCC1C1(O)C(O)CCCC[C@H]12 (stereo not given in full)	> 200	> 200	
CC1(c2ccccc2Cl)C(C#N)C(=O)NC(=O)C1C#N (stereo not given)	> 91.2	46.8	
Cc1ccc(-c2cn3c(nc4ccccc43)c(-c3ccccc3)n2)cc1	> 200	174	
